PMC9684580, “The BDSF quorum sensing receptor RpfR regulates Bep exopolysaccharide synthesis in Burkholderia cenocepacia via interaction with the transcriptional regulator BerB” (NPJ Biofilms and Microbiomes, 2022)

What was measured:
RpfR [1] = molecular target: T1, RpfR (Burkholderia cenocepacia, UniProt B4EKM4); assay: PDE assay, products by anion-exchange FPLC (ResourceQ); assay type: biochemical; settings: 2 uM enzyme, 100 uM substrate, 50 mM Tris-Cl pH 7.8, 500 mM NaCl, 2 mM MgCl2, 37 °C, 180 min; product pGpG
T1 construct: gene BCAM0580; full-length rpfR in pQE-32 (BamHI/HindIII; vector with N-terminal His tag), expressed in E. coli M15[pREP4], purified
T1 sequence (B4EKM4 entry or part of it): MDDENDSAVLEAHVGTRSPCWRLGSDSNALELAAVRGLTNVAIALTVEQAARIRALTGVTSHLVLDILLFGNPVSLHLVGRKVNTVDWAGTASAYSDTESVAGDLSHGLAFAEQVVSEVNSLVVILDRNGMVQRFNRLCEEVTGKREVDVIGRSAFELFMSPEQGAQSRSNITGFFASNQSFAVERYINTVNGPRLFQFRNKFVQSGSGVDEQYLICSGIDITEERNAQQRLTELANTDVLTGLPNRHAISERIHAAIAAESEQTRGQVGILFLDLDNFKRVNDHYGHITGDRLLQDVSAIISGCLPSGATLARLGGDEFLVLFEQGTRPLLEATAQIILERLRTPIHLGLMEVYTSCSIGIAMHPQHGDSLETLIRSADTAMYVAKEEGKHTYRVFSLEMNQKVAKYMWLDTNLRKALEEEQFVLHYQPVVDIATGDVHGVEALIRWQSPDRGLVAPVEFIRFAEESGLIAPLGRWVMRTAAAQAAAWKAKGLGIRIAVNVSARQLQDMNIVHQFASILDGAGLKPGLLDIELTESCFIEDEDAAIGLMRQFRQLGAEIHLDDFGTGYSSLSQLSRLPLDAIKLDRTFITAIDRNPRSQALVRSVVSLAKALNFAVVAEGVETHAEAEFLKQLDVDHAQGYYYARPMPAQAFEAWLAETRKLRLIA

RpfR [2] = molecular target: T1, RpfR; assay: DGC assay, products by anion-exchange FPLC (ResourceQ); assay type: biochemical; settings: 2 uM enzyme, 100 uM substrate, 50 mM Tris-Cl pH 7.8, 500 mM NaCl, 2 mM MgCl2, 37 °C, 180 min; product pGpG

Compound	PDE assay, products by anion-exchange FPLC (ResourceQ) (RpfR [1])	DGC assay, products by anion-exchange FPLC (ResourceQ) (RpfR [2])
Nc1nc2c(ncn2[C@@H]2O[C@@H]3COP(=O)(O)O[C@H]4[C@@H](O)[C@H](n5cnc6c(=O)[nH]c(N)nc65)O[C@@H]4COP(=O)(O)O[C@H]3[C@H]2O)c(=O)[nH]1 [c-di-GMP]	Wild-type RpfR metabolized GTP as well as c-di-GMP, generating pGpG from both substrates	
Nc1nc2c(ncn2[C@@H]2O[C@H](COP(=O)(O)OP(=O)(O)OP(=O)(O)O)[C@@H](O)[C@H]2O)c(=O)[nH]1 [GTP]		Wild-type RpfR metabolized GTP as well as c-di-GMP, generating pGpG from both substrates
